From the NIST ThermoML archive (doi:10.1021/je050374d)

Assay: xn = mol fraction of the nth substance listed
Settings: Liquid

C=C [ethene] + CO
Settings	mass density [kg/m3]
278.15 K, x1 = 0.147	742.3
278.15 K, x1 = 0.189	722.2
278.15 K, x1 = 0.295	675.3
278.15 K, x1 = 0.373	644.9
278.15 K, x1 = 0.989	322
283.65 K, x1 = 0.14	741.3
283.65 K, x1 = 0.221	706
283.65 K, x1 = 0.325	657.5
283.65 K, x1 = 0.432	610.9
283.65 K, x1 = 0.475	589.1
283.65 K, x1 = 0.984	258.5
